Several values for one entry are separate records, joined by “and”; a condition that tells them apart may be missing. Equal entries are not always repeated. Where two headings read alike, the source gives them in different places.
Experiments:
Vero cells = assay: Cytotoxicity for Vero cells; assay type: cell-based; conditions: one experiment in triplicate, means ± S.D.
T. cruzi (amastigotes) [1] = assay: microbe, parasite or virus in culture; conditions: Trypanosoma cruzi, read-out: T. cruzi ED50
T. cruzi (amastigotes) [2] = conditions: for T. cruzi ED50: intracellular amastigotes, one experiment in triplicate, means ± S.D.; for SI (T. cruzi): selectivity index, Vero cells versus T. cruzi
[3] = tested on: amastigotes of Trypanosoma cruzi; conditions: cited from earlier work
[4] = tested on: murine models of Chagas disease; conditions: ketoconazole as positive control; cited from earlier work
[5] = selectivity index, Vero cells versus T. gondii

Compound: N#CSCCOc1cccc(Oc2ccc(Cl)cc2)c1 [Compound 48, 3-(4-Chlorophenoxy)phenoxyethyl Thiocyanate]
- Cytotoxicity ED50 (Vero cells): 98.4 ± 5.8 µM
- IC50 (T. cruzi (amastigotes) [1]): 6.27 ± 0.75 µM
- T. cruzi ED50 (T. cruzi (amastigotes) [2]): very low micromolar range
- SI (T. cruzi) (T. cruzi (amastigotes) [2]): 15.7

Compound: [N-]=[N+]=NCCOc1ccc(Oc2ccccc2)cc1 [Compound 64, 4-Phenoxyphenoxyethyl Azide]
- Cytotoxicity ED50 (Vero cells): > 200.0 µM
- IC50 (T. cruzi (amastigotes) [1]): > 10 µM

Compound: N#CSCCOc1cccc(Oc2ccccc2Cl)c1 [Compound 46, 3-(2-Chlorophenoxy)phenoxyethyl Thiocyanate]
- Cytotoxicity ED50 (Vero cells): > 50.0 µM
- IC50 (T. cruzi (amastigotes) [1]): 11.9 ± 0.38 µM
- SI (T. gondii) (T. gondii (tachyzoites); [5]): 23.4

Compound: N#CSCCOc1ccc(Oc2ccccc2)cc1 [WC-9, 4-phenoxyphenoxyethyl thiocyanate, reference compound]
- ED50 against amastigotes of Trypanosoma cruzi [3]: low nanomolar range
- effect on parasitemia [4]: able to impair parasitemia
- Cytotoxicity ED50 (Vero cells): 82.6 ± 7.3 µM
- IC50 (T. cruzi (amastigotes) [1]): 5 ± 1.1 µM

Compound: O=C(Cn1ccnc1[N+](=O)[O-])NCc1ccccc1 [Benznidazole, reference compound]
- IC50 (T. cruzi (amastigotes) [1]): 1.92 ± 0.55 µM

Compound: N#CSCCOc1cccnc1 [Compound 72, 3-Pyridyloxyethyl Thiocyanate]
- T. gondii ED50 (T. gondii (tachyzoites); tachyzoites, one experiment in triplicate, means ± S.D.): devoid of antiparasitic activity
- T. cruzi ED50 (T. cruzi (amastigotes) [2]): devoid of antiparasitic activity

Compound: N#CSCCOc1ccc(Oc2ccc3ccccc3c2)cc1 [Compound 20, β-Naphtyloxyphenoxyethyl Thiocyanate]
- Cytotoxicity ED50 (Vero cells): 104.7 ± 7.8 µM
- T. gondii ED50 (T. gondii (tachyzoites)): 2.3 µM and 2.25 ± 0.84 µM
- SI (T. gondii) (T. gondii (tachyzoites); [5]): 46.5

Compound: α-Naphtyloxyphenylethyl Thiocyanate [Compound 24]
- T. gondii ED50 (T. gondii (tachyzoites)): 2.9 µM and 2.87 ± 0.19 µM
- SI (T. gondii) (T. gondii (tachyzoites); [5]): 24.4
- SI (T. cruzi) (T. cruzi (amastigotes) [2]): > 7

Compound: N#CSCCOc1cccc(Oc2ccncc2)c1 [Compound 62, 3-(4-Pyridyloxy)phenoxyethyl Thiocyanate]
- Cytotoxicity ED50 (Vero cells): > 200.0 µM
- IC50 (T. cruzi (amastigotes) [1]): > 10 µM
- T. cruzi ED50 (T. cruzi (amastigotes) [2]): free of antiparasitic activity

Compound: N#CSCCOc1cccc(Oc2cccc(Cl)c2)c1 [Compound 47, 3-(3-Chlorophenoxy)phenoxyethyl Thiocyanate]
- Cytotoxicity ED50 (Vero cells): > 200.0 µM
- IC50 (T. cruzi (amastigotes) [1]): > 20 µM
- T. cruzi ED50 (T. cruzi (amastigotes) [2]): vanishing biological activity

Compound: N#CSCCOc1ccc(Oc2cccc(C(F)(F)F)c2)cc1 [Compound 15, 4-[(3-Trifluoro)phenoxy]phenoxyethyl Thiocyanate]
- Cytotoxicity ED50 (Vero cells): > 50.0 µM
- SI (T. gondii) (T. gondii (tachyzoites)): > 31.1
- T. gondii ED50 (T. gondii (tachyzoites)): 1.6 µM and 1.66 ± 0.35 µM
- T. cruzi ED50 (T. cruzi (amastigotes) [2]): 10.0 µM and 10.0 ± 2.5 µM
- SI (T. cruzi) (T. cruzi (amastigotes) [2]): > 5.0

Compound: COc1ccccc1Oc1cccc(OCCSC#N)c1 [Compound 49, 3-(2-Methoxyphenoxy)phenoxyethyl Thiocyanate]
- Cytotoxicity ED50 (Vero cells): 115.7 ± 39.8 µM
- IC50 (T. cruzi (amastigotes) [1]): 11.7 ± 2.52 µM
- SI (T. gondii) (T. gondii (tachyzoites); [5]): 41.5

Compound: N#CSCCOc1cccc(Oc2ccccn2)c1 [Compound 60, 3-(2-Pyridyloxy)phenoxyethyl Thiocyanate]
- Cytotoxicity ED50 (Vero cells): > 200.0 µM
- IC50 (T. cruzi (amastigotes) [1]): > 10 µM
- T. cruzi ED50 (T. cruzi (amastigotes) [2]): free of antiparasitic activity

Compound: N#CSCCOc1ccc(Oc2ccc(C(F)(F)F)cc2)cc1 [Compound 16, 4-[(4-Trifluoro)phenoxy]phenoxyethyl Thiocyanate]
- Cytotoxicity ED50 (Vero cells): > 50.0 µM
- SI (T. gondii) (T. gondii (tachyzoites)): > 26.7
- T. gondii ED50 (T. gondii (tachyzoites)): 1.9 µM and 1.86 ± 0.38 µM
- T. cruzi ED50 (T. cruzi (amastigotes) [2]): 9.2 µM and 9.2 ± 1.8 µM

Compound: N#CSCCOc1ccc(Oc2ccccn2)cc1 [Compound 29, 4-(Pyridin-2-yloxy)phenoxyethyl Thiocyante]
- Cytotoxicity ED50 (Vero cells): > 200.0 µM

Compound: Cc1ccc(S(=O)(=O)OCCOc2cccnc2)cc1 [Compound 71, 3-Pyridyloxyethyl 4-Toluenesulfonate]
- Cytotoxicity ED50 (Vero cells): > 200 µM
- IC50 (T. cruzi (amastigotes) [1]): > 10 µM

Compound: N#CSCCOc1ccc(Br)cc1Br [Compound 68, 2,4-Dibromophenoxyethyl Thiocyanate]
- Cytotoxicity ED50 (Vero cells): > 50.0 µM
- IC50 (T. cruzi (amastigotes) [1]): > 20 µM
- T. cruzi ED50 (T. cruzi (amastigotes) [2]): inactive

Compound: COc1cccc(Oc2cccc(OCCSC#N)c2)c1 [Compound 50, 3-(3-Methoxyphenoxy)-phenoxyethyl Thiocyanate]
- Cytotoxicity ED50 (Vero cells): 96.2 ± 37.5 µM
- IC50 (T. cruzi (amastigotes) [1]): 8.75 ± 0.33 µM
- SI (T. gondii) (T. gondii (tachyzoites); [5]): 23.9
- SI (T. cruzi) (T. cruzi (amastigotes) [2]): 11.0

Compound: N#CSCCOc1cccc(Oc2cccnc2)c1 [Compound 61, 3-(3-Pyridyn-3-yloxy)phenoxyethyl Thiocyanate]
- Cytotoxicity ED50 (Vero cells): 124.0 ± 12.0 µM
- SI (T. gondii) (T. gondii (tachyzoites)): 33.5
- SI (T. cruzi) (T. cruzi (amastigotes) [2]): 16.6
